{"source": "paper PMC7044277", "about": "(Nature Communications, 2020)", "format_in_all_cases": "cell-based", "key": {"320 non-olfactory GPCRs [1]": {"target": "320 non-olfactory GPCRs (Homo sapiens, UniProt P14416)", "sequence (P14416 whole entry)": "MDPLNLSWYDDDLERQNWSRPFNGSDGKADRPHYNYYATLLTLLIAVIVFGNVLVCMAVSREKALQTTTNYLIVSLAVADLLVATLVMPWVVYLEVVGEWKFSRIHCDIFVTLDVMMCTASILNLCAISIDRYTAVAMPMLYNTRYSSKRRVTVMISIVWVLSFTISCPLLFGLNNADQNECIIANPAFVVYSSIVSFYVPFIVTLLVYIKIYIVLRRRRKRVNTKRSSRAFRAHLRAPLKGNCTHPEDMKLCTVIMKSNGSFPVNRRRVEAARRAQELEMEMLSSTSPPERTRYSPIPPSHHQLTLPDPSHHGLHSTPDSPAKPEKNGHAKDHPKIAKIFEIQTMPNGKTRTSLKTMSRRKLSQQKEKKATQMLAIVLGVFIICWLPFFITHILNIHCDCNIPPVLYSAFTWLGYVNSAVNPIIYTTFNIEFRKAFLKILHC"}, "320 non-olfactory GPCRs [2]": {"target": "T1, 320 non-olfactory GPCRs (Homo sapiens, UniProt P29274)", "T1 construct": "expressed in transfected cells; host or cells: HTLA cells", "T1 sequence (P29274 whole entry)": "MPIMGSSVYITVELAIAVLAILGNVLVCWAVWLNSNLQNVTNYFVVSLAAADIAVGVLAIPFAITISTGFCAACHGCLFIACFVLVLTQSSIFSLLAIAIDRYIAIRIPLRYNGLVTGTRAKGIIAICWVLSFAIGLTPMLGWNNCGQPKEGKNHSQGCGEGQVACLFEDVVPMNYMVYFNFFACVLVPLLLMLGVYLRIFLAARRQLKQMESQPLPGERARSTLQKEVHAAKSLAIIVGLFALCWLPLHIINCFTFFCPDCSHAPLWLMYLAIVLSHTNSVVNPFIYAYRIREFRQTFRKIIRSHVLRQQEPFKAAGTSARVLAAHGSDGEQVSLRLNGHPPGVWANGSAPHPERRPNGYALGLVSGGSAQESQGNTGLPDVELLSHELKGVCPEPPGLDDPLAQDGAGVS"}, "320 non-olfactory GPCRs [3]": {"target": "320 non-olfactory GPCRs (Homo sapiens, UniProt Q13258)", "sequence (Q13258 whole entry)": "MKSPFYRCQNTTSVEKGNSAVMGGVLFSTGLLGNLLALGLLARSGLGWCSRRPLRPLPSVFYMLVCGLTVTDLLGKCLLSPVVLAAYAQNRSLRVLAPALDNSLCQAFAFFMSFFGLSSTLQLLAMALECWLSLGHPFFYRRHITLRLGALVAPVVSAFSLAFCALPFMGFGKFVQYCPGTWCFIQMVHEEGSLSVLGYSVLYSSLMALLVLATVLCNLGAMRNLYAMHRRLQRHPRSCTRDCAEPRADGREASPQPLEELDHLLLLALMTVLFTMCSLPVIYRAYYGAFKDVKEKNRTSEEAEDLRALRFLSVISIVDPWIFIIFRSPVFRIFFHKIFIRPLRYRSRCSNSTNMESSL", "conditions": "receptor PTGDR; replicate values, Fig_4g"}, "320 non-olfactory GPCRs [4]": {"target": "320 non-olfactory GPCRs (Homo sapiens, UniProt Q96LA9)", "sequence (Q96LA9 whole entry)": "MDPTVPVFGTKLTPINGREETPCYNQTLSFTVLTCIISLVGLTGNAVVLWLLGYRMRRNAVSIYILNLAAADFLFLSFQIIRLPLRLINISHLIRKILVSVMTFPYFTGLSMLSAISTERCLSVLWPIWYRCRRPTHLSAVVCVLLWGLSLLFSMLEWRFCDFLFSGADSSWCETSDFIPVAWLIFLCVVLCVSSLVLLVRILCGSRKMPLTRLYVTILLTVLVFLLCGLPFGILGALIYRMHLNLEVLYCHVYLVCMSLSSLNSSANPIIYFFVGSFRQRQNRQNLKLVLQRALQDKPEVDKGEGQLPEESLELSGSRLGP", "conditions": "receptor MRGPRX4; replicate values, Fig_4g"}}, "note": "“And” between values parts separate entries of the source, which are not always exact repeats. Equal values may be shown once.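 Throughout, for Fold of Basal: compound tested at 1 µM final concentration.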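 Throughout, for GPCRome agonism screen response: fold over basal response of each receptor without drug.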"}
{"smiles": "CCOc1cccc2cc(C(C)NCC3(O)CCCCC3)oc12", "note": "(stereo not shown) [O4LE6]", "values": [{"measurement": "Fold of Basal", "setting": "320 non-olfactory GPCRs [1]", "value": "84.6178 and 80.3873 and 78.6628 and 75.3887"}, {"measurement": "Fold of Basal", "setting": "320 non-olfactory GPCRs [2]", "value": "0.5279 and 0.6435 and 0.5264 and 0.5735"}, {"measurement": "GPCRome agonism screen response", "setting": "320 non-olfactory GPCRs [3]", "value": "1.067 and 0.797 and 0.4909 and 0.5007"}, {"measurement": "GPCRome agonism screen response", "setting": "320 non-olfactory GPCRs [4]", "value": "0.3813 and 0.7022 and 0.804 and 1.112"}]}
